Experimental data reported in patent US12448373B2, “Azetidinyl-acetamides as CXCR7 inhibitors” (CHEMOCENTRYX, INC., priority 2021, dated 2025).

What follows are compounds tested against T1, CXCR7 (Homo sapiens, UniProt P25106) (assay: CXCR7 β-arrestin recruitment assay in CHO-CXCR7 cells (ProLink/EA β-galactosidase complementation), induced by human SDF-1a). Conditions: assay buffer, SDF-1a at EC50 concentration.
T1 construct: expressed in transfected cells; host or cells: CHO cells (CHO-CXCR7), transgenes maintained with Hygromycin B and G418
T1 sequence (P25106 whole entry): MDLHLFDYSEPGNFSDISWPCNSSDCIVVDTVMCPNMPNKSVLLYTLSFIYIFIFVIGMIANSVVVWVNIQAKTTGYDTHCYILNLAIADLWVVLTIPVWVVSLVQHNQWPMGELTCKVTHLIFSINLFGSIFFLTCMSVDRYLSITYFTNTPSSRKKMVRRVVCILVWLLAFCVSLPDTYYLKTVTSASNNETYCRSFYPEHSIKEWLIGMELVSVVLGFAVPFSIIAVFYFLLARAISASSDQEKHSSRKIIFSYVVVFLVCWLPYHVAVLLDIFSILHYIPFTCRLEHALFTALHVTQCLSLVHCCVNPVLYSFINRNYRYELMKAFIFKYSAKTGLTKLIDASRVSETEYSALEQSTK
Assay type: cell-based
Procedure: CXCR7 is fused in frame with a small enzyme donor fragment ProLink and co-expressed in CHO cells stably expressing a fusion protein of β-arrestin and the larger, N-terminal deletion mutant of β-galactosidase (called enzyme acceptor or EA). Activation of the CXCR7 stimulates binding of β-arrestin to the ProLink-tagged CXCR7 and forces complementation of the two enzyme fragments, resulting in the formation of an active β-galactosidase enzyme. The β-galactosidase enzyme activity is measured with a substrate that generates fluorescence.
CHO-CXCR7 cells (0.22×10^6/mL) were cultured in growth medium (Ham's F-12 medium with 10% fetal bovine serum (FBS)), Hygromycin B (200 ug/mL) and G418 (250 ug/mL) were used to maintain the transgenes. The day before the assay, the cells were detached from culture dishes with 0.25% trypsin-EDTA (Corning, Catalog No. 25-053-CI), plated into 96 well plate (2.2×10^5 cells/mL, 100 μL/well) and incubated overnight at 37° C. with 5% CO2. On the day of the assay, cell culture medium was removed and 100 uL of assay buffer (PBS or FBS) was added to each well. 1 μL of compound that were serially diluted in DMSO was added to each well. 5 μL of human SDF-la (Pepro Tech, Catalog No. 300-28A, at EC50 concentration pre-determined on the same day) was then added and mixed to induce CXCR7-mediated β-arrestin recruitment. The plates were incubated for 1.5 hours at 37° C. The assay buffer was removed, 100 μL substrate solution was added and the reaction was carried out at 37° C. for 30 minutes. The substrate solution was prepared by mixing 100 mL Phosphate Buffer (1M, Sigma, Catalog No. P3619-1GA), 100 mL 10% Triton X 100 (Sigma, Catalog No. T8787.), 5 mL MgCl2 (1M, Sigma, Catalog No. M1028), 1.5 mL, β-mercaptoethanol (Gibco, Catalog No. 21985-023.). 3-carboxyumbelliferyl β-D-galactopyranoside (ThermoFisher Scientific, Catalo No. F2905) was added at 0.4 mM right before use. The reaction was then stopped by adding 50 μL of Stop Solution (2.1% w/v Na2CO3) to each well. Fluorescence intensity was measured with a FlexStation 3 microplate reader (Molecular Devices) with the following setting—excitation: 360 nm, emission: 465 nm, manual Gain: 55. IC50 values were calculated with GraphPad Prism using 3 parameter nonlinear regression.
`Cc1cc(C(C)C)cc(C(C)(C)NC(=O)CC2(NC(=O)c3cc(-c4ccc(F)cc4F)on3)CN([C@H]3CC[C@](C)(O)CC3)C2)n1` [Example 1.344] showed an IC50 of 100 to 1000 nM. In the case of `Cc1cccc(C(C)(C)NC(=O)CC2(NC(=O)c3cc(-c4ccc(F)cc4F)on3)CN([C@H]3CC[C@@](C)(O)CC3)C2)n1` [Example 1.225], the IC50 is reported as under 5 nM. In the case of `Cc1cc(Cl)cc(C(C)(C)NC(=O)CC2(NC(=O)c3cc(-c4ccc(F)cc4F)on3)CN(C3CCOC(C)(C)C3)C2)n1` (centres unmarked) [Example 1.358], the IC50 is reported as under 5 nM. Compound `Cc1cc(C)nc(C(C)(C)NC(=O)CC2(NC(=O)c3cn(-c4ccc(F)cc4F)nn3)CN(C3CCCCC3)C2)n1` [Example 1.071] has an IC50 of 5 to 100 nM. In the case of `Cc1cccc(C(C)(C)NC(=O)CC2(NC(=O)c3cc(-c4ccc(F)cc4F)on3)CN(CC3(C)COC3)C2)n1` [Example 1.217], the IC50 is reported as 5 to 100 nM. For `CC(C)(NC(=O)CC1(NC(=O)c2cc(-c3ccc(F)cc3F)on2)CN([C@H]2CC[C@](C)(O)CC2)C1)c1ncccn1` [Example 1.233], the IC50 was under 5 nM. `CC(C)(NC(=O)CC1(NC(=O)c2cc(-c3ccc(F)cc3F)on2)CN([C@H]2CC[C@](C)(O)CC2)C1)c1cccc(C(F)(F)F)n1` [Example 1.156] was tested, and the IC50 was under 5 nM. Work on `CC(C)(NC(=O)CC1(NC(=O)c2cc(-c3ccc(F)cc3F)sn2)CN([C@H]2CC[C@](C)(O)CC2)C1)c1cccc(Cl)c1` [Example 1.044] yielded an IC50 of 100 to 1000 nM. `CC(C)(NC(=O)CC1(NC(=O)c2cc(-c3ccc(F)cc3F)on2)CN(C2CC2)C1)c1ccccn1` [Example 1.313] was tested, and the IC50 was 5 to 100 nM. Work on `Cc1cc(C(C)(C)NC(=O)CC2(NC(=O)c3cc(-c4ccc(F)cc4F)on3)CN(C3CCC4(CC3)COC4)C2)ccn1` [Example 1.159] yielded an IC50 of 5 to 100 nM. `CC(C)(NC(=O)CC1(NC(=O)c2cc(-c3ccc(F)cc3F)on2)CN([C@H]2CC[C@](C)(O)CC2)C1)c1cccc2cc[nH]c12` [Example 1.116] showed an IC50 of under 5 nM. `Cc1cc(C)nc(C(C)(C)NC(=O)CC2(NC(=O)c3cc(-c4ccc(F)cc4F)on3)CN(C3CC(C)(C)OC(C)(C)C3)C2)n1` [Example 1.355] was tested, and the IC50 was under 5 nM. `CC(C)(O)CN1CC(CC(=O)NC(C)(C)c2ccc(F)cc2F)(NC(=O)c2cc(-c3ccc(F)cc3F)on2)C1` [Example 1.264] was tested, and the IC50 was 1000 to 20000 nM. Compound `CC(C)(NC(=O)CC1(NC(=O)c2cc(-c3ccc(F)cc3F)on2)CN(C2CCCCC2)C1)c1ncccn1` [Example 1.270] has an IC50 of 5 to 100 nM. Work on `CC(C)(NC(=O)CC1(NC(=O)c2cc(-c3ccc(F)cc3F)on2)CN([C@H]2CC[C@@](C)(O)CC2)C1)c1ccc(F)cc1` [Example 1.259] yielded an IC50 of 5 to 100 nM. In the case of `CC(C)(NC(=O)CC1(NC(=O)c2cc(-c3ccc(F)cc3F)on2)CN(c2ccccn2)C1)c1ccccn1` [Example 1.314], the IC50 is reported as 1000 to 20000 nM. Compound `Cc1cc(C#N)cc(C(C)(C)NC(=O)CC2(NC(=O)c3nnc(-c4ccc(F)cc4F)s3)CN([C@H]3CC[C@](C)(O)CC3)C2)n1` [Example 1.352] has an IC50 of 5 to 100 nM. Compound `Cc1ccc(C(C)(C)NC(=O)CC2(NC(=O)c3cc(-c4ccc(F)cc4F)on3)CN([C@H]3CC[C@@](C)(O)CC3)C2)cc1` [Example 1.242] has an IC50 of 100 to 1000 nM. `COc1cccc(C(C)(C)NC(=O)CC2(NC(=O)c3cc(-c4ccc(F)cc4F)on3)CN(CC(C)(C)O)C2)c1` [Example 1.179] showed an IC50 of 5 to 100 nM. Compound `CC(C)(NC(=O)CC1(NC(=O)c2cc(-c3ccc(F)cc3)on2)CN([C@H]2CC[C@](C)(O)CC2)C1)c1ccccc1` [Example 1.091] has an IC50 of 5 to 100 nM. With `O=C(CC1(NC(=O)c2cc(-c3ccc(F)cc3F)on2)CN(C2CCCCC2)C1)NC1(c2ccccc2)COC1` [Example 1.320] the IC50 was 5 to 100 nM. With `COc1cc(C)cc(C(C)(C)NC(=O)CC2(NC(=O)c3cc(-c4ccc(F)cc4F)on3)CN([C@H]3CC[C@](C)(O)CC3)C2)c1` [Example 1.119] the IC50 was 5 to 100 nM. `COc1ccc(F)c(C(C)(C)NC(=O)CC2(NC(=O)c3cc(-c4ccc(F)cc4F)on3)CN([C@H]3CC[C@](C)(O)CC3)C2)c1` [Example 1.206] showed an IC50 of 5 to 100 nM. For `C[C@]1(O)CC[C@@H](N2CC(CC(=O)NC3(c4ccccn4)CC3)(NC(=O)c3cc(-c4ccc(F)cc4F)on3)C2)CC1` [Example 1.190], the IC50 was 5 to 100 nM. For `CCOc1cccc(C(C)(C)NC(=O)CC2(NC(=O)c3cc(-c4ccc(F)cc4F)on3)CN([C@H]3CC[C@](C)(O)CC3)C2)c1` [Example 1.187], the IC50 was 5 to 100 nM. For `COc1cncc(C(C)(C)NC(=O)CC2(NC(=O)c3cc(-c4ccc(F)cc4F)on3)CN([C@H]3CC[C@@](C)(O)CC3)C2)c1` [Example 1.141], the IC50 was 5 to 100 nM. Work on `CC(C)(NC(=O)CC1(NC(=O)c2cc(-c3ccc(F)cc3F)on2)CN([C@H]2CC[C@@](C)(O)CC2)C1)c1cccnc1` [Example 1.193] yielded an IC50 of 5 to 100 nM. `COC[C@@H](NC(=O)CC1(NC(=O)c2cc(-c3ccc(F)cc3F)on2)CN(C2CCCCC2)C1)c1ccccc1` [Example 1.295] showed an IC50 of 100 to 1000 nM. With `CC(C)(NC(=O)CC1(NC(=O)c2cc(-c3ccc(F)cc3F)n[nH]2)CN([C@H]2CC[C@](C)(O)CC2)C1)c1cccc(Cl)c1` [Example 1.054] the IC50 was 1000 to 20000 nM. In the case of `Cc1cc(C)nc(C(C)(C)NC(=O)CC2(NC(=O)c3cc(-c4ccc(F)cc4F)on3)CN(C3CC(C)OC(C)C3)C2)n1` (centres unmarked) [Example 1.354], the IC50 is reported as 100 to 1000 nM. Work on `CC(C)(NC(=O)CC1(NC(=O)c2cc(-c3ccc(F)cc3F)on2)CN([C@H]2CC[C@](C)(O)CC2)C1)c1ccccc1` [Example 1.268] yielded an IC50 of under 5 nM. Work on `Cc1ccc(F)c(C(C)(C)NC(=O)CC2(NC(=O)c3cc(-c4ccc(F)cc4F)on3)CN([C@H]3CC[C@@](C)(O)CC3)C2)c1` [Example 1.184] yielded an IC50 of under 5 nM. `CC(C)(NC(=O)CC1(NC(=O)c2cn(-c3ccc(F)cc3F)nn2)CN([C@H]2CC[C@](C)(O)CC2)C1)c1ccccc1` [Example 1.081] showed an IC50 of 5 to 100 nM. `CC(C)(NC(=O)CC1(NC(=O)c2cc(-c3ccc(F)cc3F)on2)CN(C2(C)CCCCC2)C1)c1cccc(Cl)c1` [Example 1.360] showed an IC50 of under 5 nM. `CC(C)(NC(=O)CC1(NC(=O)c2cc(-c3ccc(F)cc3F)on2)CN([C@H]2CC[C@](C)(O)CC2)C1)c1cccc(C#N)c1` [Example 1.173] gave an IC50 of under 5 nM. With `O=C(CC1(NC(=O)c2cc(-c3ccc(F)cc3F)on2)CN(C2CCCCC2)C1)NC1(c2ncccn2)CC1` [Example 1.332] the IC50 was 5 to 100 nM. With `CC(C)(NC(=O)CC1(NC(=O)c2cc(-c3ccc(F)cc3F)on2)CN(C2CCCCC2)C1)c1ccc(F)cc1` [Example 1.298] the IC50 was 5 to 100 nM. `O=C(CC1(NC(=O)c2cc(-c3ccc(F)cc3F)on2)CN(CC2CC2)C1)NC1(c2ncccn2)CC1` [Example 1.334] was tested, and the IC50 was 5 to 100 nM. With `COc1cccc(C(C)(C)NC(=O)CC2(NC(=O)c3cc(-c4ccc(F)cc4F)on3)CN([C@H]3CC[C@](C)(O)CC3)C2)c1F` [Example 1.196] the IC50 was 100 to 1000 nM. Compound `CC(C)CN1CC(CC(=O)NC(C)(C)c2cncc(Cl)c2)(NC(=O)c2cc(-c3ccc(F)cc3F)on2)C1` [Example 1.016] has an IC50 of 5 to 100 nM. With `CC(C)(NC(=O)CC1(NC(=O)c2cc(-c3ccc(F)cc3F)on2)CN([C@H]2CC[C@@](C)(O)CC2)C1)c1ccc(F)cn1` [Example 1.207] the IC50 was 100 to 1000 nM. `CC(C)(NC(=O)CC1(NC(=O)c2cc(-c3ccc(F)cc3F)on2)CN([C@H]2CC[C@@](C)(O)CC2)C1)c1cc(F)ccc1F` [Example 1.235] gave an IC50 of under 5 nM. `CC(C)(NC(=O)CC1(NC(=O)c2cc(-c3ccc(F)cc3F)on2)CN([C@H]2CC[C@@](C)(O)CC2)C1)c1cccc(C#N)c1` [Example 1.172] was tested, and the IC50 was under 5 nM. Compound `CC(C)(NC(=O)CC1(NC(=O)c2cc(-c3ccc(F)cc3F)on2)CN([C@@H]2CCCCC2(C)C)C1)c1ccccn1` [Example 1.274] has an IC50 of under 5 nM. With `COc1cccc(C(C)(C)NC(=O)CC2(NC(=O)c3cc(-c4ccc(F)cc4F)on3)CN(C3CCC4(CC3)COC4)C2)c1` [Example 1.183] the IC50 was 5 to 100 nM. `CC(C)(NC(=O)CC1(NC(=O)c2cc(-c3ccc(F)cc3F)on2)CN(C2CCCCC2)C1)c1ccccc1F` [Example 1.302] gave an IC50 of under 5 nM. `Cc1cc(C)nc(C(C)(C)NC(=O)CC2(NC(=O)c3cc(-c4ccc(F)cc4F)on3)CN(C3CCOC(C)(C)C3)C2)n1` (centres unmarked) [Example 1.359] was tested, and the IC50 was 5 to 100 nM. For `CC(C)(NC(=O)CC1(NC(=O)c2cnn(-c3ccc(F)cc3F)c2)CN([C@H]2CC[C@](C)(O)CC2)C1)c1cccc(Cl)c1` [Example 1.049], the IC50 was 1000 to 20000 nM. `COc1ccc(C(C)(C)NC(=O)CC2(NC(=O)c3cc(-c4ccc(F)cc4F)on3)CN([C@H]3CC[C@](C)(O)CC3)C2)cc1` [Example 1.244] gave an IC50 of 1000 to 20000 nM. `Cc1ccc(C(C)(C)NC(=O)CC2(NC(=O)c3cc(-c4ccc(F)cc4F)on3)CN([C@H]3CC[C@@](C)(O)CC3)C2)c(F)c1` [Example 1.246] gave an IC50 of 5 to 100 nM.
